Laboratory results as given in ChEMBL document CHEMBL3826966, “A chromatography-free isolation of rohitukine from leaves of Dysoxylum binectariferum: Evaluation for in vitro cytotoxicity, Cdk inhibition and physicochemical properties” (Bioorg Med Chem Lett, 2016).

How the values were obtained:
[1] = target: Serine/threonine-protein kinase tousled-like 1 (Homo sapiens) (UniProt Q9UKI8); assay: Inhibition of human TLK1 (1 to 766 residues) assessed as remaining enzyme activity at 50 uM after 30 mins by 33P-ATP filter-binding assay
[2] = target: Calcium/calmodulin-dependent protein kinase type 1 (Homo sapiens) (UniProt Q14012); assay: Inhibition of human CAMK1 (1 to 541 residues) assessed as remaining enzyme activity at 50 uM after 30 mins by 33P-ATP filter-binding assay
Calcium/calmodulin-dependent protein kinase type 1 (Homo sapiens), sequence (Q14012 whole entry, looked up, the tested form may be a part): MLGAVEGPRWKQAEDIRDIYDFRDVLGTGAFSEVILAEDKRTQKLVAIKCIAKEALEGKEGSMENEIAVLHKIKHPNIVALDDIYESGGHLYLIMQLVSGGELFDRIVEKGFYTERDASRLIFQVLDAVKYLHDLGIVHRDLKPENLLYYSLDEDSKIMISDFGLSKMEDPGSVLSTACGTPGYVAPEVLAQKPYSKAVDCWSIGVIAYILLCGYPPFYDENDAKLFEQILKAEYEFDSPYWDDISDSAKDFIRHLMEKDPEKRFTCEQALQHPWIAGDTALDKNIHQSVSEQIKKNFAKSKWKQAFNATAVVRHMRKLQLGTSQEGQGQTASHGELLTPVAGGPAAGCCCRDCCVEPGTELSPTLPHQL

MDA-MB-231 = assay: Cytotoxicity against human MDA-MB-231 cells assessed as cell growth inhibition after 48 hrs by MTT assay; type: functional; details: MDA-MB-231, 48 h
[3] = Cytotoxicity against human SF295 cells assessed as cell growth inhibition after 48 hrs by MTT assay; type: functional; details: SF-295, 48 h
[4] = Cell cycle arrest in human HL60 cells assessed as accumulation at S phase at 10 uM (reference value: 36 %); type: functional, cell-based; details: HL-60
[5] = target: Ribosomal protein S6 kinase beta-1 (Homo sapiens) (UniProt P23443); assay: Inhibition of human S6K1 assessed as remaining enzyme activity at 50 uM after 30 mins by 33P-ATP filter-binding assay
Ribosomal protein S6 kinase beta-1 (Homo sapiens), sequence (P23443 whole entry, looked up, the tested form may be a part): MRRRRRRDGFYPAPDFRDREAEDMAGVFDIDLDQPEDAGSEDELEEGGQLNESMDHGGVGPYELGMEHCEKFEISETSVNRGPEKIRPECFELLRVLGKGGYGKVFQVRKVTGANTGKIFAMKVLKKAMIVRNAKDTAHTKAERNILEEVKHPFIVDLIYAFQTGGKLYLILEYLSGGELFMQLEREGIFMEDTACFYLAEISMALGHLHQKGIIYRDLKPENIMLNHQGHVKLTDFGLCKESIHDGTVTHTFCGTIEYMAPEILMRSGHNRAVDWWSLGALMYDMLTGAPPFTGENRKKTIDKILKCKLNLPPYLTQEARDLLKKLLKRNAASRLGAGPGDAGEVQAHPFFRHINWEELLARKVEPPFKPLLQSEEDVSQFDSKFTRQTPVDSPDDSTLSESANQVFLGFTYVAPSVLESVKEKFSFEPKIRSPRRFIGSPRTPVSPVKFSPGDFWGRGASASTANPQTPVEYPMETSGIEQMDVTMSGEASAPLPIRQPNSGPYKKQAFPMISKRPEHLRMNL

[6] = target: Discoidin domain-containing receptor 2 (Homo sapiens) (UniProt Q16832); assay: Inhibition of human DDR2 (467 to 854 residues) assessed as remaining enzyme activity at 50 uM after 30 mins by 33P-ATP filter-binding assay
[7] = target: Eukaryotic translation initiation factor 2-alpha kinase 3 (Homo sapiens) (UniProt Q9NZJ5); assay: Inhibition of human EIF2AK3 (536 to 1116 residues) assessed as remaining enzyme activity at 50 uM after 30 mins by 33P-ATP filter-binding assay
HL-60 = assay: Induction of apoptosis in human HL60 cells assessed as apoptotic cells at 5 uM (reference value: 1 %); type: functional
[8] = target: Misshapen-like kinase 1 (Homo sapiens) (UniProt Q8N4C8); assay: Inhibition of human MINK1 (1 to 320 residues) assessed as remaining enzyme activity at 50 uM after 30 mins by 33P-ATP filter-binding assay
[9] = Distribution coefficient, logD of the compound in water/PBS buffer at pH 7.4 at 25 degC after 20 mins by shake flask method; type: physicochemical
[10] = target: Casein kinase II (Homo sapiens) (UniProt P67870+P68400+P19784); assay: Inhibition of human CK2 assessed as remaining enzyme activity at 50 uM after 30 mins by 33P-ATP filter-binding assay; type: protein-complex assay
[11] = target: Serine/threonine-protein kinase PLK1 (Homo sapiens) (UniProt P53350); assay: Inhibition of human PLK1 (1 to 603 residues) assessed as remaining enzyme activity at 50 uM after 30 mins by 33P-ATP filter-binding assay
Serine/threonine-protein kinase PLK1 (Homo sapiens), sequence (P53350 whole entry, the tested form may be a part): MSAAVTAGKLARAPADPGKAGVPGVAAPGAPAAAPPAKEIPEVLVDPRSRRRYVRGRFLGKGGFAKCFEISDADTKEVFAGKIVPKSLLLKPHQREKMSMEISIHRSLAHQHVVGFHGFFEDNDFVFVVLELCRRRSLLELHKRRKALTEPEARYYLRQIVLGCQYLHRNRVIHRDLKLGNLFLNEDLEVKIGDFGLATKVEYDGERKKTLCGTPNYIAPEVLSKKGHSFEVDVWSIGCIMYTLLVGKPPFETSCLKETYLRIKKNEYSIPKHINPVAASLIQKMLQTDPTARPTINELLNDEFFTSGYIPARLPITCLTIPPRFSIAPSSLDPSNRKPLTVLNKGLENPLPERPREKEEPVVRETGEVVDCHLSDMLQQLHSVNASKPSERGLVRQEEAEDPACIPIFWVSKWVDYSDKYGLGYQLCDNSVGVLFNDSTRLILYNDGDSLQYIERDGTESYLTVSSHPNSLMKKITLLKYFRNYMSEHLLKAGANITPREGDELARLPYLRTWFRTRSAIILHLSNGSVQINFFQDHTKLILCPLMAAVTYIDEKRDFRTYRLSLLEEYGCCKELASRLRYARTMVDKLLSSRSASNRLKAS

[12] = target: Serine/threonine-protein kinase Chk1 (Homo sapiens) (UniProt O14757); assay: Inhibition of human CHK1 (1 to 476 residues) assessed as remaining enzyme activity at 50 uM after 30 mins by 33P-ATP filter-binding assay
Serine/threonine-protein kinase Chk1 (Homo sapiens), sequence (O14757 whole entry, the tested form may be a part): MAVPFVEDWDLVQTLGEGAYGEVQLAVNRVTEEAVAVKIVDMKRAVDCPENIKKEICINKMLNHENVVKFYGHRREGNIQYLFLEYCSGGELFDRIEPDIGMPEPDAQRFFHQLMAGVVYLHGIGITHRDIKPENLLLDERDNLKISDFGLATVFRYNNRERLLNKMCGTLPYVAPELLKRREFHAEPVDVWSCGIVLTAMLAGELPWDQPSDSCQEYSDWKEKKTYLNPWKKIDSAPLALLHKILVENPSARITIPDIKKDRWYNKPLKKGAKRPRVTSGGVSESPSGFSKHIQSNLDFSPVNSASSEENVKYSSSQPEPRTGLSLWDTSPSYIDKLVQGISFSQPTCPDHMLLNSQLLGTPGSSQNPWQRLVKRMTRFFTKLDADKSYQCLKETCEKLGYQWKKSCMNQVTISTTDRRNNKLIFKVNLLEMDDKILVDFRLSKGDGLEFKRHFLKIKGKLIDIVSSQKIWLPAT

[13] = target: Tyrosine-protein kinase Lck (Homo sapiens) (UniProt P06239); assay: Inhibition of human LCK (2 to 509 residues) assessed as remaining enzyme activity at 50 uM after 30 mins by 33P-ATP filter-binding assay
[14] = Partition coefficient, logP of the compound in water/PBS buffer at pH 7.4 at 25 degC after 20 mins by shake flask method; type: physicochemical
[15] = target: Serine/threonine-protein kinase pim-2 (Homo sapiens) (UniProt Q9P1W9); assay: Inhibition of human PIM2 (2 to 334 residues) assessed as remaining enzyme activity at 50 uM after 30 mins by 33P-ATP filter-binding assay
Serine/threonine-protein kinase pim-2 (Homo sapiens), sequence (Q9P1W9 whole entry, looked up, the tested form may be a part): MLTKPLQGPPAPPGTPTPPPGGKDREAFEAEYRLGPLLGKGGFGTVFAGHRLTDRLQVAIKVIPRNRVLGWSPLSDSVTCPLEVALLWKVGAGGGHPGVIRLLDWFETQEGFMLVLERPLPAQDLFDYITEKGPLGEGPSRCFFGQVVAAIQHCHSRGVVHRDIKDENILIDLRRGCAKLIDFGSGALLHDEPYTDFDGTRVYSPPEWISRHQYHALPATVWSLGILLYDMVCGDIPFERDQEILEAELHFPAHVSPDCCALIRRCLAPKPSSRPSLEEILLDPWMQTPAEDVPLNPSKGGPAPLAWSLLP

[16] = target: CDK2/Cyclin A2 (Homo sapiens) (UniProt P24941+P20248); assay: Inhibition of human Cdk2/cyclin A assessed as remaining enzyme activity at 50 uM after 30 mins by 33P-ATP filter-binding assay; type: protein-complex assay
[17] = target: Mitogen-activated protein kinase 10 (Homo sapiens) (UniProt P53779); assay: Inhibition of human JNK3 (40 to 422 residues) assessed as remaining enzyme activity at 50 uM after 30 mins by 33P-ATP filter-binding assay
[18] = target: Inhibitor of nuclear factor kappa-B kinase subunit epsilon (Homo sapiens) (UniProt Q14164); assay: Inhibition of human IKKe (1 to 716 residues) assessed as remaining enzyme activity at 50 uM after 30 mins by 33P-ATP filter-binding assay
[19] = target: Dual specificity mitogen-activated protein kinase kinase 2 (Homo sapiens) (UniProt P36507); assay: Inhibition of human MKK2 (2 to 400 residues) assessed as remaining enzyme activity at 50 uM after 30 mins by 33P-ATP filter-binding assay
Dual specificity mitogen-activated protein kinase kinase 2 (Homo sapiens), sequence (P36507 whole entry, the tested form may be a part): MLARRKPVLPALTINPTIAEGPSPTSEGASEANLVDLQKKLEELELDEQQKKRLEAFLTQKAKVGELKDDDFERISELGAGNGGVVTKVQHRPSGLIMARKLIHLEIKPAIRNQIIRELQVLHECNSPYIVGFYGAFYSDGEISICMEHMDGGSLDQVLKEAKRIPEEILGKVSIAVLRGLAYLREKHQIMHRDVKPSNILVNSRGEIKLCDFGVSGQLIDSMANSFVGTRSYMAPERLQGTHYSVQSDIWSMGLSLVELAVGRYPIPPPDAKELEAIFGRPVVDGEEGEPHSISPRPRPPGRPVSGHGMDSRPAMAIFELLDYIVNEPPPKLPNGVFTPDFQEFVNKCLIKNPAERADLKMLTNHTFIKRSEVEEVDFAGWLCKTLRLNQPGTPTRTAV

[20] = target: Tyrosine-protein kinase JAK2 (Homo sapiens) (UniProt O60674); assay: Inhibition of human JAK2 assessed as remaining enzyme activity at 50 uM after 30 mins by 33P-ATP filter-binding assay
Tyrosine-protein kinase JAK2 (Homo sapiens), sequence (O60674 whole entry, the tested form may be a part): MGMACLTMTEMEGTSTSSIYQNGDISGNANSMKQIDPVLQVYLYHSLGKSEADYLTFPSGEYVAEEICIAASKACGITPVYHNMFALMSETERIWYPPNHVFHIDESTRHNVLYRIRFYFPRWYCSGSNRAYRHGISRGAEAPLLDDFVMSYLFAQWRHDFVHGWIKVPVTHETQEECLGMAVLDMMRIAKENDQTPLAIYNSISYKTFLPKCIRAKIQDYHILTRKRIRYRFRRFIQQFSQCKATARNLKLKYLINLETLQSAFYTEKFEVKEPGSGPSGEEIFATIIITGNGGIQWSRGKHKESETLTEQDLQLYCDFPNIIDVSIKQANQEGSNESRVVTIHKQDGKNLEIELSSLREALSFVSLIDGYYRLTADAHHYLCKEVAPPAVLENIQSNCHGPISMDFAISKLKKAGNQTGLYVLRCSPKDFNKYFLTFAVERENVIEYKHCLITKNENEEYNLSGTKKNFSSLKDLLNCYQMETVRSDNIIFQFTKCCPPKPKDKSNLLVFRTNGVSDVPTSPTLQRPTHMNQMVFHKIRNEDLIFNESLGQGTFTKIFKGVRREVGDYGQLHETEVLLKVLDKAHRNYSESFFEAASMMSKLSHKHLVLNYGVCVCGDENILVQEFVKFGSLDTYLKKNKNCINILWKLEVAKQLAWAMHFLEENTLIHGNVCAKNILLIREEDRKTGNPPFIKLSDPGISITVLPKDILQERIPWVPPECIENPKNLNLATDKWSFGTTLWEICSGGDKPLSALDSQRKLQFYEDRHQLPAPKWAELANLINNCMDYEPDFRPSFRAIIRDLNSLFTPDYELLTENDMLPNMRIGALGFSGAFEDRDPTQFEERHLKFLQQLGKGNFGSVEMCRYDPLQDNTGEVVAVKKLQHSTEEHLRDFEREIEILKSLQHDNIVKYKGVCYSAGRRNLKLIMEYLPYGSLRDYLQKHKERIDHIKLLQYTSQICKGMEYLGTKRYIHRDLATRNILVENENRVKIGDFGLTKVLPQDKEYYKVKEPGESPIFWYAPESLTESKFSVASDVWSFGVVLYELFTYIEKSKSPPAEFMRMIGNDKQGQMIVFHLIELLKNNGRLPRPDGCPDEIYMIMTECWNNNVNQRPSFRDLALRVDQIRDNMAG

[21] = target: Mitogen-activated protein kinase 9 (Homo sapiens) (UniProt P45984); assay: Inhibition of human JNK2 (1 to 424 residues) assessed as remaining enzyme activity at 50 uM after 30 mins by 33P-ATP filter-binding assay
Mitogen-activated protein kinase 9 (Homo sapiens), sequence (P45984 whole entry, looked up, the tested form may be a part): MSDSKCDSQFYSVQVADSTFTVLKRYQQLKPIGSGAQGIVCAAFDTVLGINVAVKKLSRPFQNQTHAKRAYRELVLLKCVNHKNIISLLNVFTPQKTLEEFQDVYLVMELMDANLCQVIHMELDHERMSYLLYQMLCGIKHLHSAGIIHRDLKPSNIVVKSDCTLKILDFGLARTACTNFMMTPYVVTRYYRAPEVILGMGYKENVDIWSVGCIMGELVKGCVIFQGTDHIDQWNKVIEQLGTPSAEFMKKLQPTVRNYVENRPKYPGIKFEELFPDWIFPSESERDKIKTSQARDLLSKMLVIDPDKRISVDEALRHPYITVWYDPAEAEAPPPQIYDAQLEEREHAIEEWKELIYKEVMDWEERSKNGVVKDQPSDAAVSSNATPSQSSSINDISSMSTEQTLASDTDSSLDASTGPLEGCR

[22] = Stability in pH 1.2 buffer at 120 ug/ml after 8 hrs by RP-HPLC analysis; type: physicochemical; details: pH 1.2, 8 h
[23] = target: Mitogen-activated protein kinase 1 (Homo sapiens) (UniProt P28482); assay: Inhibition of human ERK2 (2 to 360 residues) assessed as remaining enzyme activity at 50 uM after 30 mins by 33P-ATP filter-binding assay
Mitogen-activated protein kinase 1 (Homo sapiens), sequence (P28482 whole entry, the tested form may be a part): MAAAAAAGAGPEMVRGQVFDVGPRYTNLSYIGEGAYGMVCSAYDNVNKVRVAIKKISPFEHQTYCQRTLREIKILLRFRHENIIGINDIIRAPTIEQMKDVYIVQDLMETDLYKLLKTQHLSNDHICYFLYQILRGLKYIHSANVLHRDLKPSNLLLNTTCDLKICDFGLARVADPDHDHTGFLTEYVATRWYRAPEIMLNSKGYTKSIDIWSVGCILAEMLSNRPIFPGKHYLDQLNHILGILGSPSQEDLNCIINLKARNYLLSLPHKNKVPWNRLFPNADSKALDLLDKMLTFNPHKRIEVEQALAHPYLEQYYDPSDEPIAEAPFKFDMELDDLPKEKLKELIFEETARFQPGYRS

[24] = target: Serine/threonine-protein kinase Sgk1 (Homo sapiens) (UniProt O00141); assay: Inhibition of human SGK1 assessed as remaining enzyme activity at 50 uM after 30 mins by 33P-ATP filter-binding assay
[25] = target: 3-phosphoinositide-dependent protein kinase 1 (Homo sapiens) (UniProt O15530); assay: Inhibition of human PDK1 (52 to 556 residues) assessed as remaining enzyme activity at 50 uM after 30 mins by 33P-ATP filter-binding assay
[26] = target: Serine/threonine-protein kinase TBK1 (Homo sapiens) (UniProt Q9UHD2); assay: Inhibition of human TBK1 (1 to 729 residues) assessed as remaining enzyme activity at 50 uM after 30 mins by 33P-ATP filter-binding assay
[27] = Cytotoxicity against human PC3 cells assessed as cell growth inhibition after 48 hrs by MTT assay; type: functional; details: PC-3, 48 h
[28] = target: Calcium/calmodulin-dependent protein kinase kinase 2 (Homo sapiens) (UniProt Q96RR4); assay: Inhibition of human CAMKKbeta (1 to 541 residues) assessed as remaining enzyme activity at 50 uM after 30 mins by 33P-ATP filter-binding assay
[29] = target: CDK9/cyclin T1 (Homo sapiens) (UniProt O60563+P50750); assay: Inhibition of human Cdk9/T1 using YSPTSPSYSPTSPSYSPTSPKKK peptide as substrate at 0.5 uM after 30 mins by 33P-ATP filter-binding assay; type: protein-complex assay

Cc1cc(=O)c2c(O)cc(O)c([C@H]3CCN(C)C[C@H]3O)c2o1 [ROHITUKINE]
Activity [1]: 109%
Activity [2]: 76%
GI50 (MDA-MB-231): 13 µM
GI50 [3]: 27 µM
Activity [4]: 48%
Activity [5]: 79%
Activity [6]: 79%
Activity [7]: 82%
Activity (HL-60): 4%
Activity [8]: 73%
logD at 20 min [9]: -0.55
Activity [10]: 90%
Activity [11]: 96%
Activity [12]: 52%
Activity [13]: 45%
logD at 20 min [14]: -0.55
Activity [15]: 67%
Activity [16]: 16%
Activity [17]: 87%
Activity [18]: 69%
Activity [19]: 44%
Activity [20]: 41%
Activity [21]: 107%
Stability [22]: Stable
Activity [23]: 90%
Activity [24]: 92%
Activity [25]: 90%
Activity [26]: 55%
GI50 [27]: 19 µM
Activity [28]: 18%
inhibition [29]: 75%
